# Measured values: patent publication US9717769B2, “Method for protecting kidney function” (FUGENBIOPHARMA CO., LTD., priority 2015, dated 2017)
# Tested on: MDCK cell line
# Experiment: MTT analysis of kidney-protection effect against cisplatin-induced renal toxicity
# Assay type: cell-based, canine
# Conditions: treated with cisplatin only (5 μM), MTT 24 hours after cisplatin; relative to negative control (neither cisplatin nor EPS) set at 100%
# Description: MTT analysis was conducted to confirm the kidney-protection effect of the EPS prepared in Preparation Example 4 against renal toxicity caused by an anti-cancer agent.
# First, MDCK cell line (Korean Cell Line Bank, Korea) was cultured in DMEM medium supplemented with 10% fetal bovine serum, 100 μg/mL streptomycin and 100 U/mL penicillin at 37° C. and 5% CO2. 100 μL each of the cultured cells was dispensed to 96-well plate at 2×10^4 cells/mL, and cultured for 24 hours. The EPS was added thereto to a concentration of 25, 50 or 250 μg/mL, and 2 hours thereafter, 5 μM of cisplatin was added thereto.
# 24 hours after cisplatin was added, 10 μL of MTT (1 mg/mL) dissolved in PBS was added to each well, subjected to reaction for 4 hours. After 4 hours, the formation of formazan was confirmed, and the supernatant was completely removed so that formazan may not be dispersed. Then, the resultant was added to dissolve, in 100 μL of DMSO and dissolved, followed by the measurement of the absorbance at 570 nm using ELISA reader.
# The results are shown in FIG. 1 as relative values when the value of the negative control group treated with neither cisplatin nor EPS was set at 100%.
structure (smiles),measurement,value
"N.N.[Cl][Pt][Cl] [cisplatin, cis-diammine-dichloroplatinum [II]]",survival rate of MDCK cell line,about 60%
